Measured values as given in US20110077248A1, “IMIDAZOPYRIDINE AND RELATED ANALOGS AS SIRTUIN MODULATORS” (Sirtris Pharmaceuticals, Inc., priority 2008, published 2011).

Target: T1, SIRT1 (Homo sapiens, UniProt Q96EB6)
T1 construct: His-tag (N); made in house; host or cells: E. coli BL21(DE3), T7-promoter vector
T1 sequence (Q96EB6 1-747): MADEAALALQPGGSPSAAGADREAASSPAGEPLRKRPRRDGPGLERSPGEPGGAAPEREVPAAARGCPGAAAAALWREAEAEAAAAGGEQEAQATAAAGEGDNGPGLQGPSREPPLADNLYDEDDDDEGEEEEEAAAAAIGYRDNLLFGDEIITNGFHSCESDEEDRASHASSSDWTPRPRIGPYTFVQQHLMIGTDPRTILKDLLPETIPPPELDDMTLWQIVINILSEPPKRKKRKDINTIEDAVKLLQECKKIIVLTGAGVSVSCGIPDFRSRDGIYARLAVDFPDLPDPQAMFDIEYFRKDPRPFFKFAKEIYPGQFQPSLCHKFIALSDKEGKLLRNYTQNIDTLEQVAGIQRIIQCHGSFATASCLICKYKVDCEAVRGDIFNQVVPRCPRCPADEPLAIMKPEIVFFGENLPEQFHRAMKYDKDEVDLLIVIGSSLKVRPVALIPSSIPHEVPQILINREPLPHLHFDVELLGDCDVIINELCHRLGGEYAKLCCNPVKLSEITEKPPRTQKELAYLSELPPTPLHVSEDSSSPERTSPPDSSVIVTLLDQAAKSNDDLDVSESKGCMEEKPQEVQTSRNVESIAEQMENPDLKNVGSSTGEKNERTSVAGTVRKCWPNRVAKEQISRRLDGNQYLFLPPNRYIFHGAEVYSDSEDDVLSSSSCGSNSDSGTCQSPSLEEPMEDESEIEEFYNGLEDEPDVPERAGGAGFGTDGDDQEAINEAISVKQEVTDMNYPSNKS
Assay: Mass spectrometry based assay for modulators of SIRT1 activity (deacetylation of p53-based acetylated peptide)
Assay type: biochemical
Conditions: for EC1.5: concentration of test compound that results in 150% activation of SIRT1, 0.5 μM peptide substrate, 120 μM βNAD+, 10 nM SIRT1, 25 min, 25° C.; for Emax: percent maximum fold activation of SIRT1
Description: A mass spectrometry based assay was used to identify modulators of SIRT1 activity. The mass spectrometry based assay utilizes a peptide having 20 amino acid residues as follows: Ac-EE-K(biotin)-GQSTSSHSK(Ac)NleSTEG-K(5TMRi)-EE-NH2 (SEQ ID NO: 1) wherein K(Ac) is an acetylated lysine residue and Nle is a norleucine. The peptide is labeled with the fluorophore 5TMR (excitation 540 nm/emission 580 nm) at the C-terminus. The sequence of the peptide substrate is based on p53 with several modifications. In addition, the methionine residue naturally present in the sequence was replaced with the norleucine because the methionine may be susceptible to oxidation during synthesis and purification.
The mass spectrometry assay is conducted as follows: 0.5 μM peptide substrate and 120 μM βNAD+ is incubated with 10 nM SIRT1 for 25 minutes at 25° C. in a reaction buffer (50 mM Tris-acetate pH 8, 137 mM NaCl, 2.7 mM KCl, 1 mM MgCl2, 5 mM DTT, 0.05% BSA). Test compounds may be added to the reaction as described above. The SirT1 gene is cloned into a T7-promoter containing vector and transformed into BL21(DE3). After the 25 minute incubation with SIRT1, 10 μL of 10% formic acid is added to stop the reaction. Reactions are sealed and frozen for later mass spec analysis. Determination of the mass of the substrate peptide allows for precise determination of the degree of acetylation (i.e. starting material) as compared to deacetylated peptide (product).
A control for inhibition of sirtuin activity is conducted by adding 1 μL of 500 mM nicotinamide as a negative control at the start of the reaction (e.g., permits determination of maximum sirtuin inhibition). A control for activation of sirtuin activity is conducted using 10 nM of sirtuin protein, with 1 μL of DMSO in place of compound, to determinine the amount of deacetylation of the substrate at a given timepoint within the linear range of the assay. This timepoint is the same as that used for test compounds and, within the linear range, the endpoint represents a change in velocity.
For the above assay, SIRT1 protein was expressed and purified as follows. The SirT1 gene was cloned into a T7-promoter containing vector and transformed into BL21(DE3). The protein was expressed by induction with 1 mM IPTG as an N-terminal His-tag fusion protein at 18° C. overnight and harvested at 30,000×g. Cells were lysed with lysozyme in lysis buffer (50 mM Tris-HCl, 2 mM Tris[2-carboxyethyl]phosphine (TCEP), 10 μM ZnCl2, 200 mM NaCl) and further treated with sonication for 10 min for complete lysis. The protein was purified over a Ni-NTA column (Amersham) and fractions containing pure protein were pooled, concentrated and run over a sizing column (Sephadex S200 26/60 global). The peak containing soluble protein was collected and run on an Ion-exchange column (MonoQ). Gradient elution (200 mM-500 mM NaCl) yielded pure protein. This protein was concentrated and dialyzed against dialysis buffer (20 mM Tris-HCl, 2 mM TCEP) overnight. The protein was aliquoted and frozen at −80° C. until further use.
Sirtuin modulating compounds that activated SIRT1 were identified using the assay described above and are shown below in Table 1. The EC1.5 values represent the concentration of test compounds that result in 150% activation of SIRT1. The EC1.5 values for the activating compounds are represented by A (EC1.5<1.0 uM), B (EC1.5 1-25 uM), C (EC1.5>25 uM). The percent maximum fold activation is represented by A (Fold activation >200%) or B (Fold Activation <200%). “NT” indicates the compound was not tested in a particular assay.

Row | EC1.5 | Emax [%] | SMILES
1 | C (EC1.5>25 uM) | < 200 | O=C(Nc1nccs1)c1nccn2cc(-c3cccc(C(F)(F)F)c3)nc12 [Compound 138, N-(thiazol-2-yl)-2-(3-(trifluoromethyl)phenyl)imidazo[1,2-a]pyrazine-8-carboxamide]
2 | C (EC1.5>25 uM) | < 200 | O=C(Nc1ccccn1)c1nccn2cc(-c3cccc(OC(F)(F)F)c3)nc12 [Compound 143]
3 | C (EC1.5>25 uM) | < 200 | O=C(Nc1nccs1)c1cccn2cc(-c3ccccc3C(F)(F)F)nc12 [Compound 148]
4 | B (EC1.5 1-25 uM) | > 200 | O=C(Nc1ccccn1)c1cccn2cc(-c3ccccc3C(F)(F)F)nc12 [Compound 149]
5 | C (EC1.5>25 uM) | < 200 | O=C(Nc1ccccn1)c1cccn2cc(-c3ccc(C(F)(F)F)cc3)nc12 [Compound 151]
6 | B (EC1.5 1-25 uM) | < 200 | Cc1ccc(-c2cn3ccnc(C(=O)Nc4ccccn4)c3n2)cn1 [Compound 163]
7 | A (EC1.5<1.0 uM) | > 200 | O=C(Nc1nccs1)c1nccn2cc(-c3ccccc3C(F)(F)F)nc12 [Compound 171]
8 | B (EC1.5 1-25 uM) | > 200 | O=C(Nc1ccccn1)c1nccn2cc(-c3ccccc3C(F)(F)F)nc12 [Compound 172]
9 | A (EC1.5<1.0 uM) | > 200 | Cc1cnc(NC(=O)c2nccn3cc(-c4ccccc4C(F)(F)F)nc23)s1 [Compound 173]
10 | B (EC1.5 1-25 uM) | > 200 | O=C(Nc1cccnn1)c1nccn2cc(-c3ccccc3C(F)(F)F)nc12 [Compound 174]
11 | B (EC1.5 1-25 uM) | > 200 | O=C(Nc1ccncn1)c1nccn2cc(-c3ccccc3C(F)(F)F)nc12 [Compound 175]
12 | B (EC1.5 1-25 uM) | > 200 | O=C(Nc1cnccn1)c1nccn2cc(-c3ccccc3C(F)(F)F)nc12 [Compound 176]

The remaining lines, values behind:

Row | SMILES | EC1.5 | Emax [%]
13 | Cc1ccc(NC(=O)c2cccn3cc(-c4ccc(F)cc4C(F)(F)F)nc23)cc1 [Compound 141] | A (EC1.5<1.0 uM) | > 200
14 | O=C(Nc1nccs1)c1nccn2cc(-c3cccc(OC(F)(F)F)c3)nc12 [Compound 142] | C (EC1.5>25 uM) | < 200
15 | O=C(Nc1ncc(CN2CCCC2)s1)c1cccn2cc(-c3ccc(F)cc3C(F)(F)F)nc12 [Compound 146] | B (EC1.5 1-25 uM) | > 200
16 | O=C(Nc1ccc(CN2CCOCC2)cc1)c1cccn2cc(-c3ccc(F)cc3C(F)(F)F)nc12 [Compound 147] | B (EC1.5 1-25 uM) | > 200
17 | O=C(Nc1nccs1)c1cccn2cc(-c3ccc(C(F)(F)F)cc3)nc12 [Compound 150] | C (EC1.5>25 uM) | < 200
18 | O=C(Nc1nccs1)c1cccn2cc(-c3ccccc3F)nc12 [Compound 152] | C (EC1.5>25 uM) | < 200
19 | O=C(Nc1ccccn1)c1cccn2cc(-c3ccccc3F)nc12 [Compound 153] | C (EC1.5>25 uM) | < 200
20 | O=C(Nc1nccs1)c1cccn2cc(-c3cccc(F)c3)nc12 [Compound 154] | C (EC1.5>25 uM) | < 200
21 | O=C(Nc1ccccn1)c1cccn2cc(-c3cccc(F)c3)nc12 [Compound 155] | C (EC1.5>25 uM) | < 200
22 | O=C(Nc1nccs1)c1cccn2cc(-c3ccc(F)cc3)nc12 [Compound 156] | C (EC1.5>25 uM) | < 200
23 | O=C(Nc1ccccn1)c1cccn2cc(-c3ccc(F)cc3)nc12 [Compound 157] | B (EC1.5 1-25 uM) | < 200
24 | O=C(Nc1cccc(CN2CCOCC2)n1)c1nccn2cc(-c3cccc(OC(F)(F)F)c3)nc12 [Compound 158] | A (EC1.5<1.0 uM) | > 200
25 | O=C(Nc1cccc(CN2CCOCC2)n1)c1cccn2cc(-c3cccc(C(F)(F)F)c3)nc12 [Compound 160] | A (EC1.5<1.0 uM) | > 200
26 | O=C(Nc1cccc(CN2CCOCC2)n1)c1cccn2cc(-c3cccc(OC(F)(F)F)c3)nc12 [Compound 161] | A (EC1.5<1.0 uM) | > 200
27 | Cc1ccc(-c2cn3ccnc(C(=O)Nc4nccs4)c3n2)cn1 [Compound 162] | C (EC1.5>25 uM) | < 200
28 | Cc1ccc(-c2cn3ccnc(C(=O)Nc4nc(CN5CCOCC5)cs4)c3n2)cn1 [Compound 164] | B (EC1.5 1-25 uM) | < 200
29 | Cc1ccc(-c2cn3ccnc(C(=O)Nc4cccc(CN5CCOCC5)n4)c3n2)cn1 [Compound 165] | B (EC1.5 1-25 uM) | < 200
30 | O=C(Nc1nccs1)c1cccn2cc(-c3ccc(N4CCCC4)cc3)nc12 [Compound 166] | C (EC1.5>25 uM) | < 200
31 | O=C(Nc1ccccn1)c1cccn2cc(-c3ccc(N4CCCC4)cc3)nc12 [Compound 167] | C (EC1.5>25 uM) | < 200
32 | O=C(Nc1nccs1)c1nccn2cc(-c3ccc(N4CCCC4)cc3)nc12 [Compound 168] | C (EC1.5>25 uM) | < 200
33 | O=C(Nc1ccccn1)c1nccn2cc(-c3ccc(N4CCCC4)cc3)nc12 [Compound 169] | C (EC1.5>25 uM) | < 200
34 | O=C(Nc1ccc(CCN2CCOCC2)cc1)c1cccn2cc(-c3ccc(F)cc3C(F)(F)F)nc12 [Compound 170] | A (EC1.5<1.0 uM) | > 200
35 | O=C(Nc1nc(CN2CCOCC2)cs1)c1cccn2nc(-c3cccc(C(F)(F)F)c3)nc12 [Compound 177, N-(4-(morpholinomethyl)thiazol-2-yl)-2-(3-(trifluoromethyl)phenyl)-[1,2,4]triazolo[1,5-a]pyridine-8-carboxamide] | B (EC1.5 1-25 uM) | > 200
36 | O=C(Nc1cccc(CN2CCOCC2)n1)c1cccn2nc(-c3cccc(C(F)(F)F)c3)nc12 [Compound 178] | B (EC1.5 1-25 uM) | > 200
37 | O=C(Nc1nc(CN2CCOCC2)cs1)c1cccn2nc(-c3cccc(OC(F)(F)F)c3)nc12 [Compound 179] | B (EC1.5 1-25 uM) | > 200
38 | O=C(Nc1cccc(CN2CCOCC2)n1)c1cccn2nc(-c3cccc(OC(F)(F)F)c3)nc12 [Compound 180] | B (EC1.5 1-25 uM) | > 200
39 | O=C(Nc1nccs1)c1cccn2nc(-c3cccc(N4CCOCC4)c3)nc12 [Compound 181] | B (EC1.5 1-25 uM) | < 200
